{"source": "ChEMBL document CHEMBL4808169", "about": "“Discovery of Potent and Fast-Acting Antimalarial Bis-1,2,4-triazines” (J Med Chem, 2021)", "key": {"[1]": {"assay": "Drug excretion in Sprague-Dawley rat urine 3 mg/kg, iv measured up to 24 hrs by LC-MS analysis", "type": "ADME, organism-based", "settings": "read-out: Drug excretion"}, "[2]": {"assay": "Drug metabolism in Sprague-Dawley rat feces assessed as oxygenated metabolite M+16(2) formation at 3 mg/kg, iv by high-resolution mass spectrometry", "type": "ADME, organism-based", "settings": "in vivo"}, "[3]": {"assay": "Drug metabolism in mouse hepatocytes assessed as glucuronides/sulfates metabolite formation by LC-MS/MS(CID) analysis", "type": "ADME, cell-based, Hepatocyte"}, "[4]": {"assay": "Drug metabolism in Sprague-Dawley rat feces assessed as M-32 metabolite formation at 10 mg/kg, po by high-resolution mass spectrometry", "type": "ADME, organism-based", "settings": "in vivo"}, "Cytochrome P450 2C9": {"molecular_target": "Cytochrome P450 2C9 (Homo sapiens, UniProt P11712)", "sequence (P11712 whole entry)": "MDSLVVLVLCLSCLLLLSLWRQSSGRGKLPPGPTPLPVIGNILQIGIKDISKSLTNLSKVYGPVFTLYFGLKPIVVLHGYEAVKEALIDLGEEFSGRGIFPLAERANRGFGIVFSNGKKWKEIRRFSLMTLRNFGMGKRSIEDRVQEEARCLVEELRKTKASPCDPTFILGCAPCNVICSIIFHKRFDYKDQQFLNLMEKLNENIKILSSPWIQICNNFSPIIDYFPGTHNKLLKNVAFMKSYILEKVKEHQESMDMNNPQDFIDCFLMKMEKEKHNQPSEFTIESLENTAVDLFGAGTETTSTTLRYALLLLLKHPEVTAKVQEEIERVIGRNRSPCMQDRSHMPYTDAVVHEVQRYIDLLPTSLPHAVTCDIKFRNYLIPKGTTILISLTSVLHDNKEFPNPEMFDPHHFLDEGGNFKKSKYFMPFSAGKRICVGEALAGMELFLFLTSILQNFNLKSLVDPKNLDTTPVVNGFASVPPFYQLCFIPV", "assay": "Inhibition of CYP2C9 in human liver microsomes assessed as reduction in […] activity by . high-pressure liquid chromatography-tandem mass spectrometry", "type": "ADME"}, "[5]": {"assay": "Drug metabolism in Sprague-Dawley rat feces assessed as oxygenated metabolite M+16(1) formation at 10 mg/kg, po by high-resolution mass spectrometry", "type": "ADME, organism-based", "settings": "in vivo"}, "[6]": {"assay": "Drug metabolism in rat liver microsomes assessed as formation of cleavage product M-69 in presence of NADPH by LC-MS/MS(CID) analysis", "type": "ADME, Microsome"}, "Cytochrome P450 2D6": {"molecular_target": "Cytochrome P450 2D6 (Homo sapiens, UniProt P10635)", "sequence (P10635 whole entry)": "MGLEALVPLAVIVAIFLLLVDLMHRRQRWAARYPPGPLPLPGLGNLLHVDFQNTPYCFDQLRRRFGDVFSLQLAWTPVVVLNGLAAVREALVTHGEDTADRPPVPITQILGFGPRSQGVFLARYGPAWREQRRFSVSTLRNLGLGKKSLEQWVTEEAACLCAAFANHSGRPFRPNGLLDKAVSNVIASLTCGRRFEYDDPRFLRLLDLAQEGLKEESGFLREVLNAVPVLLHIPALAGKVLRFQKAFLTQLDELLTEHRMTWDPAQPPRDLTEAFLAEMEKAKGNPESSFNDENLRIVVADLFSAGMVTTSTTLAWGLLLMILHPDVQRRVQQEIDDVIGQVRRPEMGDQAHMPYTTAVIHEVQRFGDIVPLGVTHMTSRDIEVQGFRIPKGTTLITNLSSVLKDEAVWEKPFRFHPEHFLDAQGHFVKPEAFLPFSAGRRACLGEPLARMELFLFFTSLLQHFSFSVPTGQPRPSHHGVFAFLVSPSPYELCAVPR", "assay": "Inhibition of CYP2D6 in human liver microsomes assessed as reduction in […] activity by . high-pressure liquid chromatography-tandem mass spectrometry", "type": "ADME"}, "Plasmodium berghei": {"system": "Plasmodium berghei", "assay": "Antiplasmodial activity against Plasmodium berghei ANKA infected in po dosed Swiss mouse administered at 2 hrs post infection and measured on day 4 by Peter's 4-day test", "type": "functional"}, "[7]": {"assay": "Selectivity ratio of CC50 for HEK293 cells to IC50 for Plasmodium falciparum 3D7", "type": "toxicity", "settings": "human, read-out: Ratio CC50/IC50"}, "[8]": {"assay": "Drug metabolism in Sprague-Dawley rat feces assessed as oxygenated metabolite M+16(1) formation at 3 mg/kg, iv by high-resolution mass spectrometry", "type": "ADME, organism-based", "settings": "in vivo"}, "[9]": {"assay": "Drug metabolism in rat liver microsomes assessed as formation of cleavage product M-69 by LC-MS/MS(CID) analysis", "type": "ADME, Microsome"}, "[10]": {"assay": "Drug metabolism in Sprague-Dawley rat feces assessed as N-methyl-2-(3'-propoxy-5,5'-bi(1,2,4-triazin)-3-yloxy)ethanamine formation at 3 mg/kg, iv by high-resolution mass spectrometry", "type": "ADME, organism-based", "settings": "in vivo"}, "[11]": {"assay": "Drug metabolism in mouse hepatocytes assessed as N-methyl-2-(3'-propoxy-5,5'-bi(1,2,4-triazin)-3-yloxy)ethanamine formation by LC-MS/MS(CID) analysis", "type": "ADME, cell-based, Hepatocyte"}, "[12]": {"assay": "Clearance in Swiss mouse plasma at 2.7 mg/kg, iv measured up to 24 hrs by LC-MS analysis", "type": "ADME, organism-based"}, "[13]": {"assay": "Apparent permeability across basolateral side to apical side in human Caco2 cells measured over 120 mins by LC-MS analysis", "type": "ADME, cell-based", "settings": "Caco-2"}, "[14]": {"assay": "Drug metabolism in mouse liver microsomes assessed as oxygenated metabolite M+16(1) formation by LC-MS/MS(CID) analysis", "type": "ADME, Microsome"}, "[15]": {"assay": "AUC(0 to infinity) in Sprague-Dawley rat plasma at 3 mg/kg, iv measured up to 24 hrs by LC-MS analysis", "type": "ADME, organism-based", "set-up": "route intravenous, dose 3 mg/kg, time <=24"}, "[16]": {"assay": "Clearance in ABT-treated Sprague-Dawley rat blood at 3 mg/kg, iv by LC-MS analysis", "type": "ADME, organism-based"}, "[17]": {"assay": "Apparent oral availability in Sprague-Dawley rat at 10 mg/kg measured up to 24 hrs by LC-MS analysis", "type": "ADME, organism-based", "settings": "in vivo, read-out: Fapp"}, "[18]": {"assay": "Volume of distribution at steady state in Sprague-Dawley rat plasma at 3 mg/kg, iv measured up to 24 hrs by LC-MS analysis", "type": "ADME, organism-based", "settings": "read-out: Vdss"}, "[19]": {"assay": "Oral bioavailability in Swiss mouse at 27 mg/kg measured up to 24 hrs", "type": "ADME, organism-based", "settings": "in vivo"}, "[20]": {"assay": "Efflux ratio of apparent permeability in human Caco2 cells measured over 120 mins by LC-MS analysis", "type": "ADME, cell-based", "settings": "Caco-2"}, "Plasmodium falciparum [21]": {"system": "Plasmodium falciparum", "assay": "Antimalarial activity against Plasmodium falciparum 3D7 infected in human red blood cells at 40 uM after 72 hrs by DAPI-staining based assay relative to control", "type": "functional"}, "[22]": {"assay": "Drug concentration in blood of NOD-SCID 1L2Rgamma mouse infected with Plasmodium falciparum 3D70087/N9 at 50 mg/kg, po measured at 24 hrs by LC-MS/MS analysis", "type": "ADME, organism-based", "settings": "in vivo"}, "[23]": {"assay": "Kinetic solubility of compound at pH 6.5 by nephelometry", "type": "physicochemical", "settings": "buffer, read-out: Kinetic_solubility"}, "[24]": {"assay": "Protein binding in rat plasma measured after 6 hrs by LC-MS analysis based equilibrium dialysis method", "type": "ADME, cell-free", "settings": "read-out: PPB (converted)"}, "[25]": {"assay": "Drug metabolism in Sprague-Dawley rat urine assessed as oxygenated metabolite M+16(2) formation at 10 mg/kg, po by high-resolution mass spectrometry", "type": "ADME, organism-based", "settings": "in vivo"}, "Plasmodium falciparum [26]": {"system": "Plasmodium falciparum", "assay": "Antiplasmodial activity against Plasmodium falciparum 3D70087/N9 infected in NOD-SCID 1L2Rgamma mouse assessed as reduction in parasitemia at 50 mg/kg, po administered for 4 days starting from day 3 post infection by Peter's 4-day test", "type": "functional, organism-based"}, "[27]": {"assay": "Tmax in Sprague-Dawley rat plasma at 10 mg/kg, po administered via gavage measured up to 24 hrs by LC-MS analysis", "type": "ADME, organism-based"}, "[28]": {"assay": "Drug metabolism in human liver microsomes assessed as oxygenated metabolite M+16(1) formation by LC-MS/MS(CID) analysis", "type": "ADME, Microsome"}, "[29]": {"assay": "Drug metabolism in rat liver microsomes assessed as N-methyl-2-(3'-propoxy-5,5'-bi(1,2,4-triazin)-3-yloxy)ethanamine formation by LC-MS/MS(CID) analysis", "type": "ADME, Microsome"}, "[30]": {"assay": "Drug metabolism in human hepatocytes assessed as 3'-propoxy-5,5'-bi(1,2,4-triazin)-3-ol formation by LC-MS/MS(CID) analysis", "type": "ADME, cell-based, Hepatocyte"}, "[31]": {"assay": "Drug metabolism in Sprague-Dawley rat feces assessed as oxygenated metabolite M+16(2) formation at 10 mg/kg, po by high-resolution mass spectrometry", "type": "ADME, organism-based", "settings": "in vivo"}, "[32]": {"assay": "Drug metabolism in Sprague-Dawley rat feces assessed as M-32 metabolite formation at 3 mg/kg, iv by high-resolution mass spectrometry", "type": "ADME, organism-based", "settings": "in vivo"}, "[33]": {"assay": "Clearance in Sprague-Dawley rat plasma at 3 mg/kg, iv measured up to 24 hrs by LC-MS analysis", "type": "ADME, organism-based"}, "[34]": {"assay": "Tmax in Swiss mouse at 27 mg/kg, po measured up to 24 hrs by LC-MS analysis", "type": "ADME, organism-based", "settings": "in vivo"}, "[35]": {"assay": "Ratio of drug level in blood to plasma in Sprague-Dawley rat at 3 mg/kg, iv administered as infusion for 10 mins measured after 1 hr by LC-MS analysis", "type": "ADME, organism-based", "settings": "whole blood and plasma"}, "[36]": {"assay": "Drug metabolism in Sprague-Dawley rat urine assessed as oxygenated metabolite N-methyl-2-(3'-propoxy-5,5'-bi(1,2,4-triazin)-3-yloxy)ethanamine oxide formation at 3 mg/kg, iv by high-resolution mass spectrometry", "type": "ADME, organism-based", "settings": "in vivo"}, "[37]": {"assay": "Drug metabolism in human hepatocytes assessed as oxygenated metabolite M+16(1) formation by LC-MS/MS(CID) analysis", "type": "ADME, cell-based, Hepatocyte"}, "[38]": {"assay": "Metabolic stability of compound in Sprague-Dawley rat blood assessed as parent compound loss measured over 4 hrs by LC-MS analysis", "type": "ADME, tissue-based", "settings": "whole blood, read-out: Drug degradation"}}, "note": "The source made the active and inactive calls. The rule behind the calls is not given here."}
{"molecule": "CCCOc1nncc(-c2cnnc(OCCN(C)C)n2)n1", "values": [{"measurement": "dose excreted at 24 h", "setting": "[1]", "result": "< 3", "unit": "%"}, {"measurement": "Drug metabolism", "setting": "[2]", "result": "Metabolite_Detected"}, {"measurement": "Drug metabolism", "setting": "[3]", "result": "Metabolite_Notdetected"}, {"measurement": "Drug metabolism", "setting": "[4]", "result": "Metabolite_Detected"}, {"measurement": "IC50", "setting": "Cytochrome P450 2C9", "result": "> 20", "unit": "µM"}, {"measurement": "Drug metabolism", "setting": "[5]", "result": "Metabolite_Detected"}, {"measurement": "Drug metabolism", "setting": "[6]", "result": "Metabolite_Detected"}, {"measurement": "IC50", "setting": "Cytochrome P450 2D6", "result": "> 20", "unit": "µM"}, {"measurement": "ED50", "setting": "Plasmodium berghei", "result": 1.85, "unit": "mg/kg/day"}, {"measurement": "ED90", "setting": "Plasmodium berghei", "result": 4.1, "unit": "mg/kg/day"}, {"measurement": "selectivity ratio", "setting": "[7]", "result": "> 1000"}, {"measurement": "Drug metabolism", "setting": "[8]", "result": "Metabolite_Detected"}, {"measurement": "Drug metabolism", "setting": "[9]", "result": "Metabolite_Detected"}, {"measurement": "Drug metabolism", "setting": "[10]", "result": "Metabolite_Detected"}, {"measurement": "Drug metabolism", "setting": "[11]", "result": "Metabolite_Detected"}, {"measurement": "clearance", "setting": "[12]", "result": 406, "unit": "mL/min/kg"}, {"measurement": "Papp B→A at 2 h", "setting": "[13]", "result": 46, "unit": "×10⁻⁶ cm/s"}, {"measurement": "Drug metabolism", "setting": "[14]", "result": "Metabolite_Detected"}, {"measurement": "AUC(0-inf)", "setting": "[15]", "result": 0.658, "unit": "µM·h"}, {"measurement": "clearance", "setting": "[16]", "result": 232, "unit": "mL/min/kg"}, {"measurement": "bioavailability", "setting": "[17]", "result": 5, "unit": "%"}, {"measurement": "Vd", "setting": "[18]", "result": 2.8, "unit": "L/kg"}, {"measurement": "bioavailability", "setting": "[19]", "result": 12, "unit": "%"}, {"measurement": "efflux ratio at 2 h", "setting": "[20]", "result": 1.1}, {"measurement": "Activity", "setting": "Plasmodium falciparum [21]", "result": 100, "unit": "%"}, {"measurement": "Drug uptake", "setting": "[22]", "result": "< 1e-05", "unit": "mg/mL"}, {"measurement": "solubility kinetic", "setting": "[23]", "result": "> 100", "unit": "µg/mL"}, {"measurement": "fraction unbound at 6 h", "setting": "[24]", "result": 0.78}, {"measurement": "Drug metabolism", "setting": "[25]", "result": "Metabolite_Detected"}, {"measurement": "Activity", "setting": "Plasmodium falciparum [26]", "result": "Active"}, {"measurement": "Tmax", "setting": "[27]", "result": 1.3, "unit": "h"}, {"measurement": "Drug metabolism", "setting": "[28]", "result": "Metabolite_Detected"}, {"measurement": "Drug metabolism", "setting": "[29]", "result": "Metabolite_Detected"}, {"measurement": "Drug metabolism", "setting": "[30]", "result": "Metabolite_Notdetected"}, {"measurement": "Drug metabolism", "setting": "[31]", "result": "Metabolite_Detected"}, {"measurement": "Drug metabolism", "setting": "[32]", "result": "Metabolite_Detected"}, {"measurement": "clearance", "setting": "[33]", "result": 249, "unit": "mL/min/kg"}, {"measurement": "Tmax", "setting": "[34]", "result": 1, "unit": "h"}, {"measurement": "blood plasma ratio at 10 min", "setting": "[35]", "result": 1.3}, {"measurement": "Drug metabolism", "setting": "[36]", "result": "Metabolite_Detected"}, {"measurement": "Drug metabolism", "setting": "[37]", "result": "Metabolite_Detected"}, {"measurement": "metabolised at 4 h", "setting": "[38]", "result": 15, "unit": "%"}]}
